Reference: US6642379B1, “Benzamide derivatives, insecticides for agricultural and horticultural use and usage thereof” (Nihon Nohyaku Co., Ltd., priority 1999, dated 2003)

System: Diamond Back Moth (Plutella xylostella)
Assay: Insecticidal effect on diamond back moth (Test Example 1)
Type: in vivo
Conditions: 144 h, Chinese cabbage seedling with eggs immersed about 30 seconds, 25° C., hatched insects counted six days after immersion, read-out: insecticidal effect (mortality) activity ranking
Source text: Insecticidal Effect on Diamond Back Moth (Plutella xylostella)
Adult diamond back moths were released and allowed to oviposit on a Chinese cabbage seedling. Two days after the release, the seedling having the eggs deposited thereon was immersed for about 30 seconds in a liquid chemical prepared by diluting a preparation containing each compound listed in Tables 1 to 4 as an active ingredient to adjust the concentration to 500 ppm. After air-dryness, it was allowed to stand in a room thermostatted at 25° C. Six days after the immersion, the hatched insects were counted. The mortality was calculated according to the following equation and the insecticidal effect was judged according to the criterion shown below. The test was carried out with triplicate groups of 10 insects. [formula]

In the case of Cc1cc(OC(F)(F)F)ccc1NC(=O)c1cccc(Cl)c1-c1coc(C(C)(C)C)n1 [4-1, 2-(2-t-butyloxazol-4-yl)-3-chloro-2′-methyl-4′-trifluoromethoxybenzanilide], the mortality at 500 ppm is reported as 100%.
